Data reported in patent US20230416196A1, “DIMER OF BIGUANIDINES AND THEIR THERAPEUTIC USES” (INSTITUT CURIE, priority 2020, published 2023).

Legend:
αKG in activated MDM = test: α-Ketoglutarate (αKG) fluorometric quantification in activated MDM; format: cell-based, human; settings: Met 10 mM, LCC-12 10 μM; FIG. 3B
Protocol: Cell culture. Peripheral blood samples were collected from distinct healthy donors (Etablissement Français du Sang). Pan monocytes were isolated by negative magnetic sorting using microbeads according to the manufacturer's instructions (Miltenyi Biotec, 130-096-537), and cultured in RPMI 1640 supplemented with glutamine (Thermo Fisher Scientific, 61870010), 10% fetal bovine serum and exposed to granulocyte-macrophage colony-stimulating factor (GM-CSF, Miltenyi Biotec, 130-093-866, 100 ng/mL) to induce differentiation into macrophages (MDM). […]
α-Ketoglutarate (αKG) measurements. αKG was quantified using a fluorometric assay (Abcam, ab83431) according to the manufacturer's protocol. […] Cells were subsequently washed with ice-cold 1×PBS and counted. […] Samples were centrifuged at 13000× g for 15 min and the supernatants collected. αKG levels were measured using a standard curve and a control to subtract pyruvate background levels. Fluorescence intensities (ex. 535 nm; em. 590 nm) were recorded using a Perkin Elmer Wallac 1420 Victor2 Microplate Reader, and data were normalized against cell number. […]

mice challenged with LPS = test: Murine model of LPS-induced severe inflammation; format: in vivo, BALB/c mice; settings: LPS 20 mg/kg IP; LCC-12 0.3 mg/kg IP; dexamethasone 10 mg/kg PO as comparator; FIG. 4D
Protocol: Murine model of LPS-induced severe inflammation. Animal work was conducted at Fidelta Ltd according to 2010/63/EU and National legislation regulating the use of laboratory animals in scientific research and for other purposes (Official Gazette 55/13). An Institutional Committee on Animal Research Ethics (CARE-Zg) oversaw that animal-related procedures were not compromising the animal welfare. LPS (Sigma-Aldrich, L2630, 20 mg/kg) was injected intraperitoneally to male BALB/c mice (8 weeks-old). LCC-12 (0.3 mg/kg, IP, n=10) or vehicle (0.9% NaCl, 10 mL/kg, IP, n=10) were injected 2 h prior LPS challenge, then 24 h, 48 h, 72 h and 96 h post challenge. Dexamethasone (10 mg/kg, PO, n=10) was given 1 h prior LPS challenge. Incidence of mortality was monitored every 4 h up to 48 h, then twice daily.

[1] = system: inflammatory macrophages (act. MDM); test: Flow cytometry of CD80 and CD86 cell surface markers in activated MDM (Example 2); format: cell-based, human; settings: LCC-12 10 μM; FIG. 4F
Protocol: Cell culture. Peripheral blood samples were collected from distinct healthy donors (Etablissement Français du Sang). Pan monocytes were isolated by negative magnetic sorting using microbeads according to the manufacturer's instructions (Miltenyi Biotec, 130-096-537), and cultured in RPMI 1640 supplemented with glutamine (Thermo Fisher Scientific, 61870010), 10% fetal bovine serum and exposed to granulocyte-macrophage colony-stimulating factor (GM-CSF, Miltenyi Biotec, 130-093-866, 100 ng/mL) to induce differentiation into macrophages (MDM). At day 5 of differentiation, MDM were treated with lipopolysaccharides (LPS, InvivoGen, tlrl-3pelps, 100 ng/mL, 24 h) and interferon-γ (IFNγ, Miltenyi Biotec, 130-096-484, 20 ng/mL, 24 h) to generate activated MDM (act. MDM) and were co-treated with metformin (Met, 1,1-dimethylbiguanid hydrochloride, Alfa Aesar, J63361, 10 mM, 24 h) or LCC-12 (in-house, 10 μM, 24 h) as indicated.
Flow cytometry. […] Macrophages were analyzed with an antibody panel consisting of antibodies against the following cell surface proteins: CD44, CD80, CD86 and TfR1. The data were analyzed with FlowJo software v. […] Flow cytometry analysis of lysosomal iron content: Lysosomal iron was monitored by incubating cells at 37° C. with 5% CO2 in medium containing RhoNox-M (in-house, 1 μM, 1 h), before flow analysis of fluorescence intensity.

N=C(N)NC(=N)NCCCCCCCCCCCCNC(=N)NC(=N)N [LCC-12, lipophilic copper clamp C12]
increase of αKG in activated MDM (αKG in activated MDM): more potent than Met at a dose 1000-fold lower | survival of mice challenged with LPS (mice challenged with LPS): increased the survival of mice challenged with LPS to a similar extent than dexamethasone | production of inflammatory macrophages according to CD80 and CD86 cell surface markers [1]: interfered with the production of inflammatory macrophages
